In assay [1] the test system is Ki-67 labeling of crypt epithelial cells. The assay can be described thus: Ki-67 labeling in large bowel cross sections, DSS-induced colitis in BDF-1 mice. In kind it is in vivo, mouse. The text has this:
A total of 40 samples were chosen for analysis of MPO activity and Ki-67 labeling from the treatment groups that received SP-333, its vehicle control (0.1M phosphate buffer, pH 7) and the reference compound (5-ASA). A random number generator (www.random.org) was employed to select samples from these groups (7 from each of the SP-333-recipient groups and 6 from each of the vehicle and 5-ASA groups).
Employing standard procedures, two non-serial sections from each animal, were de-waxed in xylene and rehydrated in graded alcohols to PBS (pH 7.4). Endogenous peroxidase was blocked by incubation in 0.3% […] for 30 min. Antigen retrieval was performed by placing the slides in 1 L of citrate buffer (pH 6) and microwaving at high power for 20 minutes. After cooling for 15 minutes, sections were incubated with 10% normal goat serum for 30 minutes to block non-specific binding Primary antibody (mouse monoclonal IgG, clone MIB-1, Dako) at 1/50 dilution was added and incubated for 1 hour at room temperature. Sections were washed and incubated with biotinylated secondary IgG antibody (1/200 dilution; Vector Labs Inc.), for 45 minutes at room temperature. Subsequently, slides were washed and incubated with ABC Elite reagents (Vector Labs Inc.), for 30 minutes at room temperature. […] Sections were counterstained with thionine, dehydrated and mounted.

Assay [2] deals with T84 cells. As to the kind of experiment: Quantitative RT-PCR for transcripts in T84 cells. In kind it is cell-based, human.
The subject of assay [3] is T84 cells. The assay can be described thus: Quantitative RT-PCR for transcripts in T84 cells. In kind it is cell-based, human. The procedure: T-84 cells (˜10^7 cells) were treated with 1 μM SP-333 for 5 h. Subsequently, cDNA was prepared from total RNA using High Capacity RNA-to-cDNA Kit (Applied Biosystems, Carlsbad, Calif.) according to manufacturer's instructions. Quantitative Real-Time PCR amplification and analysis were carried out using Lightcycler 480 (Roche, Basel Switzerland), p65 and IKK-13 specific Taqman gene expression assays and Lightcycler 480 Probe master. All amplification assays were performed in duplicate employing 20 ng cDNA (based on input RNA). The total reaction volume was adjusted to 20 μL with appropriate amounts of TaqMan gene expression assays, Lightcycler 480 probe master and distilled water, then subjected to 45 PCR cycles using default cycling parameters. GAPDH transcript was used as endogenous control. The data generated were analyzed and expressed as target gene expression relative to endogenous control using comparative Cp method and 2^−ΔΔCp formula (comparative Cp values and advanced quantitative relative quantification method). TaqMan reagents were obtained from Applied Biosystems (Carlsbad, Calif.).
T-84 cells were treated with 1 μM SP-333 for 5 hours. Subsequently, cDNA was prepared from total RNA and subjected to quantitative Real-Time PCR using TaqMan reagents from Applied Biosystems.
This is another data set of the same source.

Assay [4] concerns the target T1, GC-C Receptor (Homo sapiens, UniProt P25092).
T1 construct: endogenous in cells; host or cells: T84 human colon carcinoma cells
As to the kind of experiment: Cyclic GMP stimulation assay in T84 cells. The format is cell-based. The method, then: The potency of test peptides to stimulate cGMP synthesis in T84 cells was assayed by a published procedure (Shailubhai et al. 2000). Briefly, confluent monolayers of T-84 cells in 24-well plates were washed twice with 250 μl of DMEM containing 50 mM HEPES (pH 7.4), pre-incubated at 37° C. for 10 min with 250 μl of DMEM containing 50 mM HEPES (pH 7.4) and 1 mM isobutylmethylxanthine (IBMX), followed by incubation with test peptide for 30 min. The medium was aspirated, and the reaction was terminated by the addition of 3% perchloric acid. Following centrifugation, and neutralization with 0.1 N NaOH, the resulting supernatant was used directly for measurements of intracellular cGMP using an ELISA kit (Caymen Chemical, Ann Arbor, Mich.). Results are expressed as pmol of cGMP/mg of protein in the cell extracts.

The mark [5] stands for this setting: SP-333 1 μM, 5 h, compared to unstimulated T84 cells, FIG. 3D.
Where [6] appears, read: T84 cells, compared to untreated cells, FIG. 16.

Bridge positions count the residues as written; N and C are the ends. Square brackets hold non-standard residues; d marks the D form. Peptide text beside a SMILES is read from it.

The EC50 is the concentration that produces a half-maximal response.

T1 sequence (P25092 24-1073): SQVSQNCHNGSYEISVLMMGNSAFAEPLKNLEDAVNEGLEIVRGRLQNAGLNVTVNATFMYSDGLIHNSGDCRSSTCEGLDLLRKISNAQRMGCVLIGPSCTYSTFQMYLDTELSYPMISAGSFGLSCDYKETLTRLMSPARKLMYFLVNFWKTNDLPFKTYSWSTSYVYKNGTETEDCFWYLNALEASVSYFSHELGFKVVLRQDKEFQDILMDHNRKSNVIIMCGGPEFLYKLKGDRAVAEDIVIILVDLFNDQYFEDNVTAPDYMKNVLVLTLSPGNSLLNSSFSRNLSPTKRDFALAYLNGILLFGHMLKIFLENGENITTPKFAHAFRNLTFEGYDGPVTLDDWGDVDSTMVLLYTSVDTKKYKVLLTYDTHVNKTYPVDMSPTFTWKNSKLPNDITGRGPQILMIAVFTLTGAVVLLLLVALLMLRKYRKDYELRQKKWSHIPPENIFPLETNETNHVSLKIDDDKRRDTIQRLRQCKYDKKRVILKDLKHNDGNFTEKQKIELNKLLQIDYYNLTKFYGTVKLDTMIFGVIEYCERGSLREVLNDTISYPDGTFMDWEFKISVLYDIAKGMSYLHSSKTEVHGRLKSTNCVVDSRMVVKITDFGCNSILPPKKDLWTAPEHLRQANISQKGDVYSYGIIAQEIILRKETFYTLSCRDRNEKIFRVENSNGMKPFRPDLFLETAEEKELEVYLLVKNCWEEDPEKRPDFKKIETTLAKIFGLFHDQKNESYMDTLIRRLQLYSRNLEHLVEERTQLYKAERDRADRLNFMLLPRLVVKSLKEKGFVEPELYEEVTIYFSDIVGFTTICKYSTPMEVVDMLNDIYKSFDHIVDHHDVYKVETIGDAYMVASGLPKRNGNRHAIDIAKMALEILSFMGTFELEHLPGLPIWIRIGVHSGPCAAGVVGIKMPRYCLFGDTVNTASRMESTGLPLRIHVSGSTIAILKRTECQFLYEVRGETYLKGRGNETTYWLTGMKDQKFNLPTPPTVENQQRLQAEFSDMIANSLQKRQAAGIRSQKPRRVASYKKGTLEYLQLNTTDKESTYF

Regarding `CC(C)C[C@@H]1NC(=O)[C@H](CCC(=O)O)NC(=O)[C@@H](NC(=O)[C@H](CCC(=O)O)NC(=O)[C@H](CC(=O)O)NC(=O)[C@H](N)CC(N)=O)CSSC[C@@H]2NC(=O)[C@H](C)NC(=O)[C@H](C(C)C)NC(=O)[C@H](CC(N)=O)NC(=O)[C@H](C(C)C)NC(=O)[C@H](CSSC[C@@H](C(=O)N[C@H](CC(C)C)C(=O)O)NC(=O)CNC(=O)[C@H]([C@@H](C)O)NC2=O)NC1=O` [SP-333, dAsn^1-Asp^2-Glu^3-Cys^4-Glu^5-Leu^6-Cys^7-Val^8-Asn^9-Val^10-Ala^11-Cys^12-Thr^13-Gly^14-Cys^15-dLeu^16] (H-[dN]DECELCVNVACTGC[dL]-OH; disulfide 4-12, 7-15; N-terminus and C-terminus assumed), the “crypts with normal Ki-67 labeling, comparison among groups” value in assay [1] (SP-333 0.005 mg/kg) is recorded as “greatest percentage of crypts with normal Ki-67 labeling”. The “proportion of Ki-67 positive crypts” value in assay [1] (SP-333 0.005 mg/kg/day (DSS control 35.3±4.86%)) is 60.4±6.96%. The “proportion of Ki-67 positive crypts” value in assay [1] (SP-333 0.05 mg/kg/day) was 58.7±7.3%. For the same compound, the “proportion of crypts with Ki-67 labeling vs DSS treated control” value in assay [1] (SP-333 treated sections) is recorded as “larger proportions of crypts with Ki-67 labeling”. Also, in assay [2], the “transcripts of cell division cycle 25a (putative c-Myc target gene)” value was “reduced”, the “transcripts of cyclin D1 (putative c-Myc target gene)” value was “reduced” and the “transcripts of p53 (putative c-Myc target gene)” value is reported as “reduced”. Besides, in assay [2] (FIG. 15), the “Expression of Protein Kinase G I and II Transcripts” value is listed as “enhanced”. In assay [2] (FIG. 17), the “decrease in Cyclin D1 expression” value is 58%, the “decrease in Survivin expression” value is 50%, the “decrease in c-Myc expression” value is 92% and the “expression of β-Catenin” value is “no effect”. In addition, the “decrease in c-Src expression” value in assay [2] (compared to untreated cells, FIG. 16) turned out to be 52%. Besides, in assay [3] (setting [5]), the “reduction of transcript levels of IKK-13” value was “approximately 50%” and the “reduction of transcript levels of p65” value is “approximately 50%”. In addition, in assay [3] (setting [6]), the “decrease in IKKβ expression” value was determined as 59% and the “decrease in p65 expression” value is 55%. The “potency to stimulate cGMP in T84 cells” value in assay [4] was “dose dependent increase in cGMP”. Moreover, the EC50 in assay [4] (30 min with peptide, 1 mM IBMX) was found to be 283 nM.

The record behind these values is US20160235807A1, “AGONISTS OF GUANYLATE CYCLASE USEFUL FOR DOWNREGULATION OF PRO-INFLAMMATORY CYTOKINES” (SYNERGY PHARMACEUTICALS, INC., priority 2013, published 2016).
